{
  "source": "patent US20260232767A1",
  "about": "“INTERLEUKIN-23 RECEPTOR ANTAGONIST PEPTIDES FOR USE IN THE TREATMENT OF PSORIASIS” (Janssen Pharmaceutica NV, priority 2023, published 2026)",
  "assay": "Plasma concentrations (PK), Example 1",
  "format": "in vivo, human",
  "conditions": "human, plasma, oral; for level at 1344 h: Week 8; for level at 168 h: Week 1, Trough; for level at 672 h: Week 4",
  "method": "For QD dosing, peak concentration was defined as any PK sample taken between 0.25 to <6 hours after the last morning dose and trough concentration was at least 20 hours after the last morning dose. For BID dosing, peak concentration was defined as any PK sample taken between 0.25 to <4 hours after the last dose and trough concentration was at least 8 hours after the last dose.",
  "key": {"[1]": {"conditions": "50 mg, 50 mg QD, Peak, read-out: Plasma concentration, Geometric Mean"}, "[2]": {"conditions": "50 mg, 50 mg QD, Peak, read-out: Plasma concentration, Mean"}, "[3]": {"conditions": "50 mg, 50 mg QD, Peak, read-out: Plasma concentration, Median"}},
  "note": "Where two headings read alike, the source gives them in different places.",
  "data": [
    {"smiles": "CC(=O)NCCCC[C@@H]1NC(=O)[C@H](Cc2c[nH]c3c(C)cccc23)NC(=O)[C@H]([C@@H](C)O)NC(=O)[C@H](CC(N)=O)NC(=O)[C@@H](NC(C)=O)C(C)(C)SSC(C)(C)[C@@H](C(=O)N[C@@H](Cc2ccc(OCCN)cc2)C(=O)N[C@@H](Cc2ccc3ccccc3c2)C(=O)NC2(C(=O)N[C@@H](CCC(=O)O)C(=O)N[C@@H](CC(N)=O)C(=O)N[C@@H](Cc3cccnc3)C(=O)N(C)CC(N)=O)CCOCC2)NC1=O", "note": "[IL-23 receptor antagonist peptide, Ac-[Pen]*-N-T-[W(7-Me)]-[Lys(Ac)]-[Pen]*-Phe[4-(2-aminoethoxy)]-[2-Nal]-[THP]-E-N-[3-Pal]-Sarc-NH2 (*[Pen]-[Pen]* formdisulfidebond)]", "values": [
      {"measurement": "level at 1344 h", "setting": "25 mg, 25 mg QD, Trough, read-out: Plasma concentration, Median", "result": 0.06, "unit": "ng/mL"},
      {"measurement": "level at 2016 h", "setting": "25 mg, 25 mg QD, Week 12, Trough, read-out: Plasma concentration, Mean", "result": 0.052, "unit": "ng/mL"},
      {"measurement": "level at 2016 h", "setting": "25 mg, weight >90 kg, 25 mg BID, Week 12, Intermediate, read-out: Plasma concentration, Geometric Mean", "result": 0.214, "unit": "ng/mL"},
      {"measurement": "level at 2016 h", "setting": "25 mg, weight >90 kg, 25 mg BID, Week 12, Peak, read-out: Plasma concentration, Geometric Mean", "result": 0.32, "unit": "ng/mL"},
      {"measurement": "level at 2016 h", "setting": "25 mg, weight >90 kg, 25 mg BID, Week 12, Peak, read-out: Plasma concentration, Mean", "result": 0.391, "unit": "ng/mL"},
      {"measurement": "level at 2016 h", "setting": "25 mg, weight >90 kg, 25 mg BID, Week 12, Peak, read-out: Plasma concentration, Median", "result": 0.365, "unit": "ng/mL"},
      {"measurement": "level at 2688 h", "setting": "25 mg, weight >90 kg, 25 mg BID, Week 16, Intermediate, read-out: Plasma concentration, Mean", "result": 0.181, "unit": "ng/mL"},
      {"measurement": "level at 2688 h", "setting": "25 mg, weight >90 kg, 25 mg BID, Week 16, Trough, read-out: Plasma concentration, Geometric Mean", "result": 0.144, "unit": "ng/mL"},
      {"measurement": "level at 2688 h", "setting": "25 mg, weight >90 kg, 25 mg BID, Week 16, Trough, read-out: Plasma concentration, Mean", "result": 0.152, "unit": "ng/mL"},
      {"measurement": "level at 2688 h", "setting": "25 mg, weight >90 kg, 25 mg BID, Week 16, Trough, read-out: Plasma concentration, Median", "result": 0.138, "unit": "ng/mL"},
      {"measurement": "level at 168 h", "setting": "25 mg, weight >90 kg, 25 mg QD, read-out: Plasma concentration, Mean", "result": 0.044, "unit": "ng/mL"},
      {"measurement": "level at 2016 h", "setting": "25 mg, weight >90 kg, 25 mg QD, Week 12, Peak, read-out: Plasma concentration, Geometric Mean", "result": 0.236, "unit": "ng/mL"},
      {"measurement": "level at 2016 h", "setting": "25 mg, weight >90 kg, 25 mg QD, Week 12, Peak, read-out: Plasma concentration, Mean", "result": 0.281, "unit": "ng/mL"},
      {"measurement": "level at 2016 h", "setting": "25 mg, weight >90 kg, 25 mg QD, Week 12, Peak, read-out: Plasma concentration, Median", "result": 0.291, "unit": "ng/mL"},
      {"measurement": "level at 2688 h", "setting": "25 mg, weight >90 kg, 25 mg QD, Week 16, Intermediate, read-out: Plasma concentration, Mean", "result": 0.165, "unit": "ng/mL"},
      {"measurement": "level at 2688 h", "setting": "25 mg, weight >90 kg, 25 mg QD, Week 16, Trough, read-out: Plasma concentration, Geometric Mean", "result": 0.063, "unit": "ng/mL"},
      {"measurement": "level at 2688 h", "setting": "25 mg, weight >90 kg, 25 mg QD, Week 16, Trough, read-out: Plasma concentration, Mean", "result": 0.066, "unit": "ng/mL"},
      {"measurement": "level at 2688 h", "setting": "25 mg, weight >90 kg, 25 mg QD, Week 16, Trough, read-out: Plasma concentration, Median", "result": 0.047, "unit": "ng/mL"},
      {"measurement": "level at 2016 h", "setting": "25 mg, weight ≤90 kg, 25 mg QD, Week 12, Trough, read-out: Plasma concentration, Mean", "result": 0.045, "unit": "ng/mL"},
      {"measurement": "level at 672 h", "setting": "[1]", "result": 0.481, "unit": "ng/mL"},
      {"measurement": "level at 672 h", "setting": "[2]", "result": 0.564, "unit": "ng/mL"},
      {"measurement": "level at 672 h", "setting": "[3]", "result": 0.539, "unit": "ng/mL"},
      {"measurement": "level at 1344 h", "setting": "50 mg, 50 mg QD, Intermediate, read-out: Plasma concentration, Geometric Mean", "result": 0.441, "unit": "ng/mL"},
      {"measurement": "level at 1344 h", "setting": "50 mg, 50 mg QD, Intermediate, read-out: Plasma concentration, Mean", "result": 0.441, "unit": "ng/mL"},
      {"measurement": "level at 1344 h", "setting": "50 mg, 50 mg QD, Intermediate, read-out: Plasma concentration, Median", "result": 0.441, "unit": "ng/mL"},
      {"measurement": "level at 1344 h", "setting": "[1]", "result": 0.853, "unit": "ng/mL"},
      {"measurement": "level at 1344 h", "setting": "[2]", "result": 1.1, "unit": "ng/mL"},
      {"measurement": "level at 1344 h", "setting": "[3]", "result": 0.78, "unit": "ng/mL"},
      {"measurement": "level at 1344 h", "setting": "50 mg, 50 mg QD, Trough, read-out: Plasma concentration, Geometric Mean", "result": 0.111, "unit": "ng/mL"},
      {"measurement": "level at 1344 h", "setting": "50 mg, 50 mg QD, Trough, read-out: Plasma concentration, Mean", "result": 0.147, "unit": "ng/mL"},
      {"measurement": "level at 1344 h", "setting": "50 mg, 50 mg QD, Trough, read-out: Plasma concentration, Median", "result": 0.112, "unit": "ng/mL"},
      {"measurement": "level at 2016 h", "setting": "50 mg, 50 mg QD, Week 12, Trough, read-out: Plasma concentration, Mean", "result": 0.085, "unit": "ng/mL"},
      {"measurement": "level at 168 h", "setting": "50 mg, weight >90 kg, 50 mg QD, read-out: Plasma concentration, Mean", "result": 0.073, "unit": "ng/mL"},
      {"measurement": "level at 2016 h", "setting": "50 mg, weight >90 kg, 50 mg QD, Week 12, Peak, read-out: Plasma concentration, Geometric Mean", "result": 0.551, "unit": "ng/mL"},
      {"measurement": "level at 2016 h", "setting": "50 mg, weight >90 kg, 50 mg QD, Week 12, Peak, read-out: Plasma concentration, Mean", "result": 0.786, "unit": "ng/mL"},
      {"measurement": "level at 2016 h", "setting": "50 mg, weight >90 kg, 50 mg QD, Week 12, Peak, read-out: Plasma concentration, Median", "result": 0.388, "unit": "ng/mL"},
      {"measurement": "level at 2688 h", "setting": "50 mg, weight >90 kg, 50 mg QD, Week 16, Intermediate, read-out: Plasma concentration, Mean", "result": 0.321, "unit": "ng/mL"},
      {"measurement": "level at 2688 h", "setting": "50 mg, weight >90 kg, 50 mg QD, Week 16, Trough, read-out: Plasma concentration, Geometric Mean", "result": 0.105, "unit": "ng/mL"},
      {"measurement": "level at 2688 h", "setting": "50 mg, weight >90 kg, 50 mg QD, Week 16, Trough, read-out: Plasma concentration, Mean", "result": 0.096, "unit": "ng/mL"},
      {"measurement": "level at 2688 h", "setting": "50 mg, weight >90 kg, 50 mg QD, Week 16, Trough, read-out: Plasma concentration, Median", "result": 0.115, "unit": "ng/mL"},
      {"measurement": "level at 2016 h", "setting": "50 mg, weight ≤90 kg, 50 mg QD, Week 12, Trough, read-out: Plasma concentration, Mean", "result": 0.083, "unit": "ng/mL"},
      {"measurement": "level at 672 h", "setting": "100 mg, 100 mg BID, Intermediate, read-out: Plasma concentration, Geometric Mean", "result": 0.756, "unit": "ng/mL"},
      {"measurement": "level at 672 h", "setting": "100 mg, 100 mg BID, Peak, read-out: Plasma concentration, Geometric Mean", "result": 1.7, "unit": "ng/mL"}
    ]}
  ]
}
